Results as given in patent US6448052B2, “Carbonyl reductase enzyme and methods for its use” (Kaneka Corporation, priority 1997, dated 2002).

Experiments:
CRD enzyme [1] = test: Effect of metal ions and inhibitors on CRD enzyme activity, ethyl 4-chloroacetoacetate as substrate; assay type: biochemical, Candida magnoliae IFO 0705
CRD enzyme [2] = test: Substrate specificity of the purified CRD enzyme (decrease in NADPH absorption at 340 nm); assay type: biochemical, Candida magnoliae IFO 0705; details: for Relative activity (%): Substrate 0.2 mM, 0.32 mM NADPH, 200 mM phosphate buffer pH 7.0, 30° C., ethyl 4-chloroacetoacetate = 100; for substrate specificity (activity of the enzyme to the substrate, in words): NADPH as coenzyme
Description: First, the above yeast is cultured in an appropriate medium, and microbe bodies are collected from the resultant culture by centrifugation. The microbe bodies are destroyed by Dyno mill (manufactured by Dyno-Mill), for example, and centrifuged to remove cell debris and thus obtain a cell-free extract. The cell-free extract is then subjected to a processing, such as salting-out (e.g., ammonium sulfate precipitation and sodium phosphate precipitation), solvent precipitation (a protein fractionation precipitation method using acetone, ethanol, or the like), dialysis, gel filtration, ion exchange, column chromatography such as a reverse phase chromatography, and ultrafiltration, alone or in combination, to purify the enzyme. The CRD enzyme activity can be determined by measuring a reduction in the absorption at 340 nm at 30° C., for a 100 mM phosphate buffer (pH 6.5) with 1 mM ethyl 4-chloroacetoacetate as a substrate, 0.1 mM NADPH as a coenzyme, and the enzyme added thereto, or a 200 mM phosphate buffer (pH 7.0) with 0.2 mM ethyl 4-chloroacetoacetate as a substrate and 0.32 mM NADPH as a coenzyme added thereto. Under these reaction conditions, oxidation of 1 μmol NADPH into NADP in one minute is defined as one unit of enzymatic activity.
The enzyme activity was determined by, basically, allowing 3 ml of a reaction solution including 0.2 mM ethyl 4-chloroacetoacetate as a substrate, 0.32 mM NADPH as a coenzyme, and 0.1 ml of an enzyme solution in a 200 mM phosphate buffer (pH 7.0) to react at 30° C. for one minute and measuring a reduction in the absorption at 340 nm.
The enzyme according to the present invention was reacted using various carbonyl compounds shown in Table 1 below as a substrate under the same conditions as those used for ethyl 4-chloroacetoacetate.

CRD enzyme [3] = test: Organic solvent resistance of the CRD enzyme; assay type: biochemical, Candida magnoliae IFO 0705; details: equivalent amount of solvent added to phosphate buffer (pH 7.0), shaken at 28° C. for 30 minutes
[4] = assay type: physicochemical, Candida magnoliae IFO 0705; details: 0.5 h, pH 7
Description: The expression that an enzyme is “stable” as used herein means that after being processed at pH 7.0 at 40° C. for 30 minutes the enzyme sustains an activity of 90% or more of that before the processing.
After the enzyme according to the present invention was treated at pH 7.0at 40° C. for 30 minutes, the activity of the enzyme was measured using ethyl 4-chloroacetoacetate as a substrate. As a result, the activity of 90% of that before the treatment remained.

[5] = Concentration of addition 0.1 mM, non-added = 100
[6] = Concentration of addition 1 mM, non-added = 100

Molecule: O=[N+]([O-])c1ccc(O)c([N+](=O)[O-])c1 [2,4-dinitrophenol]
- Relative activity (%) (CRD enzyme [1]; [5]): 86%

Molecule: O=Cc1ccccc1 [Benzaldehyde]
- Relative activity (%) (CRD enzyme [2]): 0%

Molecule: CC12CCC(C(=O)C1=O)C2(C)C (stereo not shown) [Camphor quinone]
- Relative activity (%) (CRD enzyme [2]): 0%

Molecule: [Cl][Cd][Cl] [CdCl2]
- Relative activity (%) (CRD enzyme [1]; [6]): 91%

Molecule: O=CCCl [Chloroacetoaldehyde]
- Relative activity (%) (CRD enzyme [2]): 0%

Molecule: [Cl-].[Cl-].[Co+2] [CoCl2]
- Relative activity (%) (CRD enzyme [1]): 89%

Molecule: O=S(=O)([O-])[O-].[Cu+2] [CuSO4]
- Relative activity (%) (CRD enzyme [1]; [6]): 85%

Molecule: O=C(O)c1cc(SSc2ccc([N+](=O)[O-])c(C(=O)O)c2)ccc1[N+](=O)[O-] [DTNB]
- Relative activity (%) (CRD enzyme [1]; Concentration of addition 0.05 mM, non-added = 100): 100%

Molecule: CC(=O)C(C)=O [Diacetyl]
- Relative activity (%) (CRD enzyme [2]): 19%

Molecule: O=c1oc2ccccc2c(O)c1Cc1c(O)c2ccccc2oc1=O [Dicoumarol]
- Relative activity (%) (CRD enzyme [1]; [5]): 97%

Molecule: O=C(O)CN(CCN(CC(=O)O)CC(=O)O)CC(=O)O [EDTA]
- Relative activity (%) (CRD enzyme [1]; [6]): 95%

Molecule: CCOC(=O)CC(C)=O [Ethyl acetoacetate]
- substrate specificity (activity of the enzyme to the substrate, in words) (CRD enzyme [2]): substantially no activity
- Relative activity (%) (CRD enzyme [2]): 0%

Molecule: O=CC=O [Glyoxal]
- Relative activity (%) (CRD enzyme [2]): 0%

Molecule: [Cl][Hg][Cl] [HgCl2]
- inhibitor (enzyme inhibited, in words) (CRD enzyme [1]): inhibited
- Relative activity (%) (CRD enzyme [1]; [5]): 49%

Molecule: O=C(O)CI [Iodoacetic acid]
- Relative activity (%) (CRD enzyme [1]): 100%

Molecule: CC(=O)C=O [Methyl glyoxal]
- Relative activity (%) (CRD enzyme [2]): 0%

Molecule: [Cl-].[Cl-].[Mg+2] [MgCl2]
- Relative activity (%) (CRD enzyme [1]; [6]): 83%

Molecule: CCN1C(=O)C=CC1=O [NEM]
- Relative activity (%) (CRD enzyme [1]; [6]): 105%

Molecule: O=Cc1cccnc1 [Nicotinaldehyde]
- Relative activity (%) (CRD enzyme [2]): 0%

Molecule: O=S(=O)(F)Cc1ccccc1 [PMSF]
- Relative activity (%) (CRD enzyme [1]; [6]): 93%

Molecule: [Cl][Pb][Cl] [PbCl2]
- Relative activity (%) (CRD enzyme [1]; [6]): 86%

Molecule: NNc1ccccc1 [Phenylhydrazine]
- Relative activity (%) (CRD enzyme [1]; [6]): 97%

Molecule: O=c1c(O)c(-c2ccc(O)c(O)c2)oc2cc(O)cc(O)c12 [Quercetin]
- inhibitor (enzyme inhibited, in words) (CRD enzyme [1]): inhibited
- Relative activity (%) (CRD enzyme [1]; Concentration of addition 0.01 mM, non-added = 100): 84%
- Relative activity (%) (CRD enzyme [1]; [5]): 0%

Molecule: [Cl][Sn][Cl] [SnCl2]
- Relative activity (%) (CRD enzyme [1]; [6]): 77%

Molecule: O=S(=O)([O-])[O-].[Zn+2] [ZnSO4]
- Relative activity (%) (CRD enzyme [1]; [6]): 97%

Molecule: CCCCOC(C)=O [butyl acetate]
- residual activity of the enzyme in the aqueous phase (CRD enzyme [3]): 85%

Molecule: CCOC(=O)C(Cl)C(C)=O (stereo not shown) [ethyl 2-chloroacetoacetate]
- Relative activity (%) (CRD enzyme [2]): 95%

Molecule: CCOC(=O)CC(=O)CCl [ethyl 4-chloroacetoacetate]
- substrate specificity (activity of the enzyme to the substrate, in words) (CRD enzyme [2]): strong activity
- Relative activity (%) (CRD enzyme [2]): 100%

Molecule: CCOC(C)=O [ethyl acetate]
- residual activity of the enzyme in the aqueous phase (CRD enzyme [3]): 72%

Molecule: O=Cc1ccncc1 [isonicotinaldehyde]
- Relative activity (%) (CRD enzyme [2]): 0%

Molecule: O=Cc1cccc(Cl)c1 [m-chlorobenzaldehyde]
- Relative activity (%) (CRD enzyme [2]): 0%

Molecule: O=Cc1cccc([N+](=O)[O-])c1 [m-nitrobenzaldehyde]
- Relative activity (%) (CRD enzyme [2]): 0%

Molecule: COC(=O)C(Cl)C(C)=O (stereo not shown) [methyl 2-chloroacetoacetate]
- Relative activity (%) (CRD enzyme [2]): 11%

Molecule: COC(=O)CC(=O)CCl [methyl 4-chloroacetoacetate]
- Relative activity (%) (CRD enzyme [2]): 11%

Molecule: O=Cc1ccccc1Cl [o-chlorobenzaldehyde]
- Relative activity (%) (CRD enzyme [2]): 0%

Molecule: O=Cc1ccccc1[N+](=O)[O-] [o-nitrobenzaldehyde]
- Relative activity (%) (CRD enzyme [2]): 0%

Molecule: CCCCCCCCOC(=O)CC(=O)CCl [octyl 4-chloroacetoacetate]
- Relative activity (%) (CRD enzyme [2]): 36%

Molecule: O=C(O)c1cc[c]([Hg][Cl])cc1 [p-CMB]
- Relative activity (%) (CRD enzyme [1]; [6]): 88%

Molecule: O=Cc1ccc(Cl)cc1 [p-chlorobenzaldehyde]
- Relative activity (%) (CRD enzyme [2]): 0%

Molecule: O=Cc1ccc([N+](=O)[O-])cc1 [p-nitrobenzaldehyde]
- Relative activity (%) (CRD enzyme [2]): 0%

B1: CRD enzyme: carbonyl reductase purified from Candida magnoliae IFO 0705, amino acid sequence SEQ ID NO:1 (protein, listed as Candida magnoliae)
chain: MAKNFSNVEYPAPPPAHTKNESLQVLDLFKLNGKVASITGSSSGIGYALAEAFAQVGADVAIWYNSHDATGKAEALAKKYGVKVKAYKANVSSSDAVKQTIEQQIKDFGHLDIVVANAGIPWTKGAYIDQDDDKHFDQVVDVDLKGVGYVAKHAGRHFRERFEKEGKKGALVFTASMSGHIVNVPQFQATYNAAKAGVRHFAKSLAVEFAPFARVNSVSPGYINTEISDFVPQETQNKWWSLVPLGRGGETAELVGAYLFLASDAGSYATGTDIIVDGGYTLP
- heat stability: activity remaining relative to before the treatment [4]: 90%
